Assay results from patent US20120258940A1, “METHOD FOR TREATING HAEMATOLOGICAL CANCERS” (priority 2009, published 2012).

What was measured:
Assay type in all cases: cell-based
[1] = tested on: multiple myeloma cell line KMS-11; experiment: Cell viability (CellTiter GLO), FGFR inhibitor + glucocorticoid combination, KMS-11; conditions: for CI of Cpd. + 100 nM Dex: 72 hours; for Synergy Score: Loewe Additivity model
Method: (§1) Cell viability was measured by CellTiter GLO. For the combination treatments in FIGS. 1 and 2, the Y axes were cell viability was normalized to the wells treated with dexamethasone alone.
(§2) All FGFR inhibitors were desolved in DMSO as a 10 mM stock. Serial dilutions, as indicated in each figure, were made as 3× solutions in culture medium before adding to the cell cultures. Dexamethasone and halometasone were dissolved in 100% ethanol as a 10 millimol master stock. Serial dilutions, as indicated in each figure, were made as 3× solutions in culture medium. Cell lines, cell culture and treatment:
(§3) KMS-11 and OPM-2 cell lines can be purchased from HSRRB (Japan) and DSMZ (Germany), respectively. Early passage KMS-11 and OPM-2 cell lines were cultured in RPMI-1640 (ATCC Catalog#30-2001) supplemented with 10% FBS for 1 or 2 passages before treatment. Twenty thousand cells were seeded in each well of a 96-well plate and grew for 24 hours. Cells were then treated in triplicate with vehicle, an FGFR inhibitor (Compound A, B), a glucocorticoid (Dexamethasone or halometasone) alone or a combination at indicated concentrations in 5% CO2 at 37 C for 72 hours. Viability was determined by CellTiter GLO (Promega, Cat#G755B) using identical method as described by the manufacturer. Data analysis:
(§4) Raw CellTiter GLO relative […] unit (RFU) values were acquired using a microplate reader (PerkinElmer Precisely, Perkin Elmer Life and Analytical Sciences). Data analysis was performed using the Chalice software developed by CombinatoRx (Zalicus Inc., Cambridge, Mass., USA). Specifically, the Loewe Additivity (ADD) model was used as the combination reference in the EXAMPLES.

[2] = tested on: multiple myeloma cell line OPM-2; experiment: Cell viability (CellTiter GLO), FGFR inhibitor + glucocorticoid combination, OPM-2; conditions: for CI of Cpd. + 100 nM Dex: 72 hours; for Synergy Score: Loewe Additivity model
Method: as §1, §2, §3, §4

[3] = tested on: multiple myeloma cell lines; experiment: Inhibition of proliferation of multiple myeloma cell lines by combinations (cell line not specified); conditions: with Dexamethasone
Method: as §2, §3
Raw CellTiter GLO relative […] unit (RFU) values were acquired using a microplate reader (PerkinElmer Precisely, Perkin Elmer Life and Analytical Sciences). Data analysis was performed using the Chalice software developed by CombinatoRx (Zalicus Inc., Cambridge, Mass., USA). […]

[4] = Cpd. 0.0001 nM + 100 nM dexamethasone
[5] = Cpd. 0.001 nM + 100 nM dexamethasone
[6] = Cpd. 0.01 nM + 100 nM dexamethasone
[7] = Cpd. 0.1 nM + 100 nM dexamethasone
[8] = Cpd. 1 nM + 100 nM dexamethasone
[9] = Cpd. 10 nM + 100 nM dexamethasone
[10] = Cpd. 100 nM + 100 nM dexamethasone
[11] = Cpd. 1000 nM + 100 nM dexamethasone
[12] = Cpd. 10000 nM + 100 nM dexamethasone
[13] = in combination with Dexamethasone

SMILES: CCN1CCN(c2ccc(Nc3cc(N(C)C(=O)Nc4c(Cl)c(OC)cc(OC)c4Cl)ncn3)cc2)CC1 [Compound A, 3-(2,6-dichloro-3,5-dimethoxy-phenyl)-1-{6-[4-(4-ethyl-perpazin-1-yl)-phenylamino]-pyrimidin-4-yl}-1-methyl urea]
- CI of Cpd. + 100 nM Dex [1, 4]: 6.10E−02
- CI of Cpd. + 100 nM Dex [1, 5]: 2.20E−02
- CI of Cpd. + 100 nM Dex [1, 6]: 9.00E−03
- CI of Cpd. + 100 nM Dex [1, 7]: 5.00E−03
- CI of Cpd. + 100 nM Dex [1, 8]: 1.00E−03
- CI of Cpd. + 100 nM Dex [1, 9]: 4.17E−05
- CI of Cpd. + 100 nM Dex [1, 10]: 1.25E−06
- CI of Cpd. + 100 nM Dex [1, 11]: 1.21E−06
- CI of Cpd. + 100 nM Dex [1, 12]: 1.43E−12
- Chemical 1 concentration in the combination at 50% growth inhibition [1, 13]: A (1.5) mM
- Combination Index (CI) at 50% inhibition [1, 13]: 0.077 ± 0.001
- Synergy call [1, 13]: Very strong
- Synergy Score [1, 13]: 35
- Chemical 1 concentration in the combination at 50% growth inhibition ([1]; in combination with Sicorten): A (4.2) mM
- Combination Index (CI) at 50% inhibition ([1]; in combination with Sicorten): 0.220 ± 0.006
- Synergy call ([1]; in combination with Sicorten): Strong
- Synergy Score ([1]; in combination with Sicorten): 10
- Combination effect on cell viability (figure legend) ([1]; with Sicorten): synergistic effect
- Combination effect on cell viability (figure legend) ([1]; with dexamethasone): synergistic effect
- CI of Cpd. + 100 nM Dex [2, 4]: 1.39E−01
- CI of Cpd. + 100 nM Dex [2, 5]: 5.00E−02
- CI of Cpd. + 100 nM Dex [2, 6]: 4.90E−02
- CI of Cpd. + 100 nM Dex [2, 7]: 1.50E−02
- CI of Cpd. + 100 nM Dex [2, 8]: 1.10E−02
- CI of Cpd. + 100 nM Dex [2, 9]: 3.00E−03
- CI of Cpd. + 100 nM Dex [2, 10]: 7.00E−03
- CI of Cpd. + 100 nM Dex [2, 11]: 5.90E−02
- CI of Cpd. + 100 nM Dex [2, 12]: 4.40E−02
- Chemical 1 concentration in the combination at 50% growth inhibition [2, 13]: A (0.03) mM
- Combination Index (CI) at 50% inhibition [2, 13]: 0.034 ± 0.003
- Synergy call [2, 13]: Very strong
- Synergy Score [2, 13]: 29
- Chemical 1 concentration in the combination at 50% growth inhibition ([2]; in combination with Sicorten): A (1.6) mM
- Combination Index (CI) at 50% inhibition ([2]; in combination with Sicorten): 0.282 ± 0.007
- Synergy call ([2]; in combination with Sicorten): Strong
- Synergy Score ([2]; in combination with Sicorten): 17
- Combination effect on cell viability (figure legend) ([2]; with Sicorten): synergistic effect
- Combination effect on cell viability (figure legend) ([2]; with dexamethasone): synergistic effect
- Reduction by Dexamethasone of the concentration required to achieve 50% of inhibition of proliferation [3]: at least a million fold

SMILES: CN1CCN(c2ccc3nc(-c4c(N)c5c(F)cccc5[nH]c4=O)[nH]c3c2)CC1 [Compound B, 4-amino-5-fluoro-3-[6-(4-methylpiperazin-yl)-1H-benzimidazol-2-yl]quinolin-2(1H)-one]
- CI of Cpd. + 100 nM Dex [1, 4]: 2.71E−01
- CI of Cpd. + 100 nM Dex [1, 5]: 1.72E−01
- CI of Cpd. + 100 nM Dex [1, 6]: 1.73E−01
- CI of Cpd. + 100 nM Dex [1, 7]: 1.32E−01
- CI of Cpd. + 100 nM Dex [1, 8]: 1.23E−01
- CI of Cpd. + 100 nM Dex [1, 9]: 9.00E−03
- CI of Cpd. + 100 nM Dex [1, 10]: 1.00E−03
- CI of Cpd. + 100 nM Dex [1, 11]: 4.00E−03
- CI of Cpd. + 100 nM Dex [1, 12]: 3.00E−03
- Chemical 1 concentration in the combination at 50% growth inhibition [1, 13]: B (0.74) mM
- Combination Index (CI) at 50% inhibition [1, 13]: 0.050 ± 0.004
- Synergy call [1, 13]: Very strong
- Synergy Score [1, 13]: 18
- Chemical 1 concentration in the combination at 50% growth inhibition ([1]; in combination with Sicorten): B (0.45) mM
- Combination Index (CI) at 50% inhibition ([1]; in combination with Sicorten): 0.371 ± 0.003
- Synergy Score ([1]; in combination with Sicorten): 4
- Combination effect on cell viability (figure legend) ([1]; with Sicorten): synergistic effect
- Combination effect on cell viability (figure legend) ([1]; with dexamethasone): synergistic effect
- CI of Cpd. + 100 nM Dex [2, 4]: 1.64E+00
- CI of Cpd. + 100 nM Dex [2, 5]: 1.38E+00
- CI of Cpd. + 100 nM Dex [2, 6]: 1.17E+00
- CI of Cpd. + 100 nM Dex [2, 7]: 1.10E+00
- CI of Cpd. + 100 nM Dex [2, 8]: 1.00E+00
- CI of Cpd. + 100 nM Dex [2, 9]: 7.94E−01
- CI of Cpd. + 100 nM Dex [2, 10]: 1.86E−01
- CI of Cpd. + 100 nM Dex [2, 11]: 5.80E−02
- CI of Cpd. + 100 nM Dex [2, 12]: 1.00E−03
- Chemical 1 concentration in the combination at 50% growth inhibition [2, 13]: B (1.8) mM
- Combination Index (CI) at 50% inhibition [2, 13]: 0.350 ± 0.010
- Synergy Score [2, 13]: 10
- Chemical 1 concentration in the combination at 50% growth inhibition ([2]; in combination with Sicorten): B (10) mM
- Combination Index (CI) at 50% inhibition ([2]; in combination with Sicorten): 0.281 ± 0.005
- Synergy call ([2]; in combination with Sicorten): Strong
- Synergy Score ([2]; in combination with Sicorten): 14
- Combination effect on cell viability (figure legend) ([2]; with Sicorten): synergistic effect
- Combination effect on cell viability (figure legend) ([2]; with dexamethasone): synergistic effect

SMILES: CCN(CC)CCCCNc1ncc2cc(-c3cc(OC)cc(OC)c3)c(NC(=O)NC(C)(C)C)nc2n1 [Compound E, 1-tert-Butyl-3-[6-(3,5-dimethoxy-phenyl)-2-(4-diethylamino-butylamino)-pyrido[2,3-d]pyrimidin-7-yl]-urea, reference compound]
- Combination effect on cell viability (figure legend) ([1]; with dexamethasone): synergistic effect
- Combination effect on cell viability (figure legend) ([2]; with dexamethasone): synergistic effect

SMILES: C[C@@H]1C[C@H]2[C@@H]3CCC4=CC(=O)C=C[C@]4(C)[C@@]3(F)[C@@H](O)C[C@]2(C)[C@@]1(O)C(=O)CO [Dexamethasone, reference compound]
- Chemical 2 concentration in the combination at 50% growth inhibition ([1]; in combination with Compound A): (0.14) mM
- Chemical 2 concentration in the combination at 50% growth inhibition ([1]; in combination with Compound B): (0.32) mM
- Chemical 2 concentration in the combination at 50% growth inhibition ([2]; in combination with Compound A): (0.30) mM
- Chemical 2 concentration in the combination at 50% growth inhibition ([2]; in combination with Compound B): (0.30) mM

SMILES: C[C@@H]1C[C@H]2[C@@H]3C[C@H](F)C4=CC(=O)C(Cl)=C[C@]4(C)[C@@]3(F)[C@@H](O)C[C@]2(C)[C@@]1(O)C(=O)CO [Sicorten, halometasone, reference compound]
- Chemical 2 concentration in the combination at 50% growth inhibition ([1]; in combination with Compound A): Sicorten (0.01) mM
- Chemical 2 concentration in the combination at 50% growth inhibition ([1]; in combination with Compound B): Sicorten (0.02) mM
- Chemical 2 concentration in the combination at 50% growth inhibition ([2]; in combination with Compound A): Sicorten (0.03) mM
- Chemical 2 concentration in the combination at 50% growth inhibition ([2]; in combination with Compound B): Sicorten (0.02) mM
